{"source": "patent US20260000763A1", "about": "“Methods of Manufacturing Therapeutic Cells” (The Board of Trustees of the Leland Stanford Junior …, priority 2022, published 2026)", "tested_on": "HA-INO-CAR T cells", "test": "Ciclopirox treatment of inosine-cultured HA-CAR T cells, memory subsets by flow cytometry", "format": "cell-based, human", "settings": "20 μM CPX for 24 h, day 16, CD8+ inosine-cultured HA-CAR T cells", "from_the_text": "Concatenated samples from n=3 donors. […] (Left) Dot plots of representative donor shown.", "data": [{"smiles": "Cc1cc(C2CCCCC2)n(O)c(=O)c1", "note": "[CPX, ciclopirox]", "values": [{"measurement": "frequency of central memory-like cells", "result": "striking decrease"}]}]}
